Laboratory results reported in patent US11897862B2 (Gilead Sciences, Inc., priority 2022, dated 2024).
Read-outs that look alike come from different tables or passages of the source.

What was measured:
Assay type in all cases: cell-based
[1] = target: T1, IKZF1 (Homo sapiens, UniProt Q13422+Q96SW2); assay: HEK293 HiBiT in vitro degradation of IKZF1; conditions: for Dmax: HEK293, HEK293 HiBiT, maximum degradation at the highest concentration tested; for DC50: HEK293 HiBiT, 18-24 hr incubation, normalized to DMSO control, read-out: IKZF1 EC50
T1 construct: expressed in transfected cells
T1 sequence (Q13422 whole entry): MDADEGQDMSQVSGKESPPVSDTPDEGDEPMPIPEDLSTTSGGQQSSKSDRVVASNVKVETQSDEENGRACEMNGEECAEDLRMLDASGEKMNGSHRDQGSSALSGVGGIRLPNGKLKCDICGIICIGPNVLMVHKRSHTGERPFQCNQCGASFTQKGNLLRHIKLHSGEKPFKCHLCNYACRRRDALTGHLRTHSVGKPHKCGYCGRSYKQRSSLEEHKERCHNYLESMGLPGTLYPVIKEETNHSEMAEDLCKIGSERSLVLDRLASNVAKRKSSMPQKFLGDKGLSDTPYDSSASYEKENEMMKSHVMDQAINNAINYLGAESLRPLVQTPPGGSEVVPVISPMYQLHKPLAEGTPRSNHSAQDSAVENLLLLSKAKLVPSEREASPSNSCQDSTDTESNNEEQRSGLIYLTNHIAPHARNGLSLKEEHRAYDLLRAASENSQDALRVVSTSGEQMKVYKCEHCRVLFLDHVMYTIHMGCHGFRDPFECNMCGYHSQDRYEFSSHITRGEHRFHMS
T1 sequence (Q96SW2 whole entry): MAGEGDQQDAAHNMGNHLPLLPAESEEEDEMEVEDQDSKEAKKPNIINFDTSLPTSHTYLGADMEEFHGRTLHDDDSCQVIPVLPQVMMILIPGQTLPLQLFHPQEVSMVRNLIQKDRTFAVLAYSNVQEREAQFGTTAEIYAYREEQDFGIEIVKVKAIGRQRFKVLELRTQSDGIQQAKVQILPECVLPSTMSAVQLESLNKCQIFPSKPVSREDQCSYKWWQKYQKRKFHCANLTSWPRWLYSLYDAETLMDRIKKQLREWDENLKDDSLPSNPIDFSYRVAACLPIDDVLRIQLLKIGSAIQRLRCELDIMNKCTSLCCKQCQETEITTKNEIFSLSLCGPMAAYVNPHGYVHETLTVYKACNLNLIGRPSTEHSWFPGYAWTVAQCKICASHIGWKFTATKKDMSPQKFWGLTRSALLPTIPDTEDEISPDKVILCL
T1 sequence (Q16531 whole entry partner): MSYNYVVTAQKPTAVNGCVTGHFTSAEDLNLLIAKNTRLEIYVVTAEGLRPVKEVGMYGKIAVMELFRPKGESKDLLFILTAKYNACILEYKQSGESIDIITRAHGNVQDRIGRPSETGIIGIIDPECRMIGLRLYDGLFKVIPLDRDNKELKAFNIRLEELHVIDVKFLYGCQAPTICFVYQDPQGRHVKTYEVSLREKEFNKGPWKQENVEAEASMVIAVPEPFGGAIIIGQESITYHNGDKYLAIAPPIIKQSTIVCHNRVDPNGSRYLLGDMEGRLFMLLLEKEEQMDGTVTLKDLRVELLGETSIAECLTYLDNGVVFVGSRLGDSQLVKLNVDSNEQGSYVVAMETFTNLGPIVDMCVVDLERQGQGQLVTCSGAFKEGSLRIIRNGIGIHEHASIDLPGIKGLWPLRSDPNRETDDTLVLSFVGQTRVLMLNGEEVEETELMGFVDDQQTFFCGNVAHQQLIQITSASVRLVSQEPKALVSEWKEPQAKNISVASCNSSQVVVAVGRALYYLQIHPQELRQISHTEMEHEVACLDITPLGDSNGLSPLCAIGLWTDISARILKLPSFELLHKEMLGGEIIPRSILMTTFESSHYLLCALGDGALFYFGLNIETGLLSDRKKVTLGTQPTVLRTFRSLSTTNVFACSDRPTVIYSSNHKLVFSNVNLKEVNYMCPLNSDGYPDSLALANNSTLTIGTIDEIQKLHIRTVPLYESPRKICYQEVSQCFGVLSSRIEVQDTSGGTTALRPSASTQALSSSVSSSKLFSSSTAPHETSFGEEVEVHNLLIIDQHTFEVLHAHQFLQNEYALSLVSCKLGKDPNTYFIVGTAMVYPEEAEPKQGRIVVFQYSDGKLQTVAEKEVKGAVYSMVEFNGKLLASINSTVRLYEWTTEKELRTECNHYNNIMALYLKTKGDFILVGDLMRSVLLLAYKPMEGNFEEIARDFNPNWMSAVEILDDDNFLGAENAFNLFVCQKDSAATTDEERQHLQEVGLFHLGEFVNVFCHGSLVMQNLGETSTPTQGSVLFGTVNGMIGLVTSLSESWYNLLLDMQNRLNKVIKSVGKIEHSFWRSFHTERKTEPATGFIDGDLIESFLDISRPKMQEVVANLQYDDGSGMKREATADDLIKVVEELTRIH
How it was run: (§1)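 Cellular target level is measured as luminescence from an 11-residue HiBiT tag fused via a linker to the C-terminus of IKZF1, IKZF2 or SALL4 in stable Flp-In T-REx HEK293 pools. Reporter expression is induced overnight with doxycycline ([…] final), and compounds act for 18-24 h before lytic detection.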

[2] = target: T2, IKZF2 (Homo sapiens, UniProt Q96SW2+Q9UKS7); assay: Human whole blood IKZF2 degradation (flow cytometry, CD4/CD25/Foxp3+ Treg cells); design: endogenous in cells; conditions: 24 hrs incubation, IKZF2 MFI in CD4/CD25/Foxp3+ Treg cells, flow cytometry; for DC50: read-out: IKZF2 EC50
How it was run: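 Fresh healthy-donor human whole blood stimulated with CD3/CD28 activator and serially diluted compound for 24 hrs at 37° C. IKZF2 MFI in CD4/CD25/Foxp3+ Tregs (IKZF1 MFI in CD4+ T cells) measured by flow cytometry after RBC lysis, fixation, permeabilization. EC50 and Dmax versus DMSO wells.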
Target sequence in this assay (Q9UKS7 whole entry): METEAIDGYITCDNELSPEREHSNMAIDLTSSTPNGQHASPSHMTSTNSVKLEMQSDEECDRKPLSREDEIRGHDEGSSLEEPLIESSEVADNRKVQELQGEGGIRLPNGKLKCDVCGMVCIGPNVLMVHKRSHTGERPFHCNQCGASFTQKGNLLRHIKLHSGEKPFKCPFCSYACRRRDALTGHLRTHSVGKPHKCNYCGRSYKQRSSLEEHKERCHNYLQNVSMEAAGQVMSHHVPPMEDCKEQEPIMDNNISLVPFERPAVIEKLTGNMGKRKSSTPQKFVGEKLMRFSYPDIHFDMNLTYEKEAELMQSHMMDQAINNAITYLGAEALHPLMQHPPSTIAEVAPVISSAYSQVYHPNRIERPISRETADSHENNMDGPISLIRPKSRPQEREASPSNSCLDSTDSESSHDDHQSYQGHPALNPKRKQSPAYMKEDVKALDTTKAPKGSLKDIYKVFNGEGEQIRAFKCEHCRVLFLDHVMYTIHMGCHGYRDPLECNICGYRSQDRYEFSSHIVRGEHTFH
Target sequence in this assay (Q96SW2 whole entry): as the sequence (Q96SW2 whole entry) above
Target sequence in this assay (Q16531 whole entry partner): as the sequence (Q16531 whole entry partner) above

[3] = target: T2, IKZF2; assay: HEK293 HiBiT in vitro degradation of IKZF2; design: expressed in transfected cells; conditions: for Dmax: HEK293, HEK293 HiBiT; for DC50: 18-24 hr incubation, normalized to DMSO control, read-out: IKZF2 EC50
How it was run: as §1
Target sequence in this assay (Q9UKS7 1-500 isoform Q9UKS7-2): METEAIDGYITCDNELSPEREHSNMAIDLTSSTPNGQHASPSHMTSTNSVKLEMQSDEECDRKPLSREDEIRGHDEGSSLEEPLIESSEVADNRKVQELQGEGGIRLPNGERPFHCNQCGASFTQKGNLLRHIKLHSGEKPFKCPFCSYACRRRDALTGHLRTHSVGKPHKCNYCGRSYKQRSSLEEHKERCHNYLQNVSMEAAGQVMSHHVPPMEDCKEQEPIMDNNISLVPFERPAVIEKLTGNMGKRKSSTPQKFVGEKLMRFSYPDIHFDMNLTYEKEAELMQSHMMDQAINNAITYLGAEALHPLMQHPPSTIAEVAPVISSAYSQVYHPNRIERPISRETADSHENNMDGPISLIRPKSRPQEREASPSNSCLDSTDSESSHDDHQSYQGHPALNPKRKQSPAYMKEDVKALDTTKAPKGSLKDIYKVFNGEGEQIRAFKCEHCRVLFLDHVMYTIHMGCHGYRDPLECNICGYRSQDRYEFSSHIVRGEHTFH
Target sequence in this assay (Q96SW2 whole entry): as the sequence (Q96SW2 whole entry) above
Target sequence in this assay (Q16531 whole entry partner): as the sequence (Q16531 whole entry partner) above

[4] = target: T2, IKZF2; assay: HEK293 IKZF2 degradation kinetics (HiBiT, timepoints 1-24 h); design: expressed in transfected cells; conditions: for kinact: HEK293, IKZF2, timepoints 1, 2, 3, 4.5 and 24 hour, read-out: Maximum degradation rate Kinact (converted)
Protocol: The assay technology and principles for evaluating IKZF2 degradation kinetics in HEK293 cells was identical to the HEK293 degradation assay as described above. Additional details are briefly described below.
On Day 1, Cells were grown and induced the same as described above. On Days 2 and 3, compounds for testing were dispensed via ECHO and cells were lifted and plated into compound-spotted assay plates as above. Plates were returned to the 37° C. incubator until addition of Nano-Glo lytic reagent at 1, 2, 3, 4.5, and 24 hour timepoints. At these timepoints, plates were read on Envision reader as above.
All raw data was normalized to DMSO control (final concentration: 0.5%) wells as POC and plotted out as a function of time to generate the degradation rate constant (K) value. The maximum degradation rate (Kinact) was determined by plotting the K value as a function of concentration for each compound tested. Kinact values are shown in Table 25 and the degradation rate plots as well as timecourse of degradation are shown for select compounds in FIG. 1A, FIG. 1B, FIG. 2A and FIG. 2B.
Target sequence in this assay (Q9UKS7 1-500 isoform Q9UKS7-2): as the sequence (Q9UKS7 1-500 isoform Q9UKS7-2) above
Target sequence in this assay (Q96SW2 whole entry): as the sequence (Q96SW2 whole entry) above
Target sequence in this assay (Q16531 whole entry partner): as the sequence (Q16531 whole entry partner) above

[5] = target: T3, SALL4 (Homo sapiens, UniProt Q96SW2+Q9UJQ4); assay: HEK293 HiBiT in vitro degradation of SALL4; conditions: 18-24 hr incubation, normalized to DMSO control, read-out: SALL4 EC50
T3 construct: expressed in transfected cells
T3 sequence (Q9UJQ4 whole entry): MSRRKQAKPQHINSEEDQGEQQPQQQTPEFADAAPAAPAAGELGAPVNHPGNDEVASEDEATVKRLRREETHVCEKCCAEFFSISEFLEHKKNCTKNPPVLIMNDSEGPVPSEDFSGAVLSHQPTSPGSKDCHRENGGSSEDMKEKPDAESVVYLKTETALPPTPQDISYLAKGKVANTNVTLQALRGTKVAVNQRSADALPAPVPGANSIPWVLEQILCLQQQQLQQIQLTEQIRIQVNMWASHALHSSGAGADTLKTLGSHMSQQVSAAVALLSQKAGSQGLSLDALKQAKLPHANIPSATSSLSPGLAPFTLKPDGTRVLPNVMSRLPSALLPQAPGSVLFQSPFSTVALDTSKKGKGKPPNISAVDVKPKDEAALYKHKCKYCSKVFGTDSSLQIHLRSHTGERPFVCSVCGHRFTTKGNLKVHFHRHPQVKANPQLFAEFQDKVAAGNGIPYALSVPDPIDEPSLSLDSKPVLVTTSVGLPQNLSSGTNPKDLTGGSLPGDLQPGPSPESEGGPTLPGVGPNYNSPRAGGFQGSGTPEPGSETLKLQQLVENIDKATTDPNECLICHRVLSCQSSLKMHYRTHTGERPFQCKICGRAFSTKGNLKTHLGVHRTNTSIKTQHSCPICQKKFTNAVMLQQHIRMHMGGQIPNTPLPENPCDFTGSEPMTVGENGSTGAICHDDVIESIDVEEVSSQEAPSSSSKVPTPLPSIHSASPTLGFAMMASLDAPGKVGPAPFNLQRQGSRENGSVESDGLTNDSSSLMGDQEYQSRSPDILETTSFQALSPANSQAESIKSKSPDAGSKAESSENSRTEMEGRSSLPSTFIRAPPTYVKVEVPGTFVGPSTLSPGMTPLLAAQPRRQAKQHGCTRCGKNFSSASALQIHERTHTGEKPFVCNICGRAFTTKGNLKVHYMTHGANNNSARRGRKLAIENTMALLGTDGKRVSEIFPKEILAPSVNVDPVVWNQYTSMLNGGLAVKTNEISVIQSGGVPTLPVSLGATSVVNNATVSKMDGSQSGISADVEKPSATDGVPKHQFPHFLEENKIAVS
T3 sequence (Q96SW2 whole entry): as the sequence (Q96SW2 whole entry) above
T3 sequence (Q16531 whole entry partner): as the sequence (Q16531 whole entry partner) above
Protocol: In vitro degradation of IKZF1, IKZF2, and SALL4 was measured using HiBiT protein tagging and detection technology (Promega).
HiBit technology was used to develop the quantitative assays to measure the cellular IKZFs level by tagging an 11 amino acid HiBit peptides […] to the protein of interest. Reporter plasmids were generated by fusing a linker sequence ([…]) followed by the HiBit tag at the C-terminus of IKZF1, IKZF2, and SALL4. The fusion fragments were subsequently cloned into pcDNA5 pcDNA™5/FRT/TO plasmids (Thermo Fisher, cat #V652020) downstream of the tetracycline operator. The resulting plasmids were co-transfected with pOG44 Flp-Recombinase Expression Vector (Thermo Fisher, cat #V600520) into Flp-In™ T-REx HEK293 line (Thermo Fisher, cat #R78077) and a stable cell pool was selected by adding 100 µg/ml of Hygromycin (Thermo Fisher, cat #10687010). The reporter cell enabled Tet-On inducible reporter expression from a single copy of the integrated gene.
On Day 1, Cells were grown to ˜80% confluency in tissue culture medium (DMEM Glutamax (Gibco10569), 10% Tet free FBS (Takara 631106), and PenStrep Glutamin (Gibco 10378)) in tissue culture flasks. Doxycycline was then added to a final concentration of […] to induce reporter expression at 37° C. overnight.
On Day 2, 125 nL of serially-diluted solution of testing compounds were dispensed into 384-well white solid assay plates via ECHO acoustic liquid handler. Cells were lifted by 0.25% Trypsin (Gibco 25200) then pelleted by centrifugation (Beckman Avanti J-E) at 500×g for 5 min. Cell pellets were resuspended in TC medium at the concentration of 3e5/mL and 25 μL of cell suspension were added into each well of compound-spotted plates. The plates were returned to a 37° C. incubator overnight (18-24 hr).
On Day 3, assay plates were removed from the tissue culture incubator and 25 μL of Nano-Glo lytic detection system (Promega, cat #N3030) was added to each well. Plates were incubated at r.t. for 3 min with shaking, and luminescence was read using an Envision reader (Perkin Elmer).
To assess the IKZF1, IKZF2, and SALL4 degrader potential of exemplified compounds of this disclosure and certain Reference Compounds EC50 and Dmax values were determined for the compounds of Examples 1 to 383 and Reference Compounds A-1, B-1, B-2, B-3, B-4, and C-1 in the HiBiT assays. Asterisks (*) indicate examples for which the data shown represents an average of n≥3.

[6] = target: T2, IKZF2; assay: Jurkat IKZF2 degradation (flow cytometry); design: endogenous in cells; conditions: Jurkat cells, overnight incubation; for Dmax: maximum degradation at the highest concentration tested
Protocol: (§2) Jurkat cell line (ATCC, Clone E6-1), highly expresses IKZF2 and lends it an appropriate system to screen degradation along with a functional readout. Jurkat cells were grown to 80% confluency in TC medium (RPMI containing glutamax, 10% FBS, 1% NEAA, and 1% Pen/Strep Glutamin in tissue culture flasks.
(§3) The cells were spun down at 400 g for 5 mins and counted. 100 K cells per well were added to a 96-well plate. The compounds were introduced starting at 10 μM and dilutions were made 1:10 for each compound. 100 μL of compound was added to each well for a 12-point titration. The cells were incubated at 37° C. with 5% CO2 overnight.
Cells were stained with appropriate surface and intracellular antibodies and acquired by flow cytometry and analysed for degradation. […]
Target sequence in this assay (Q9UKS7 whole entry): as the sequence (Q9UKS7 whole entry) above
Target sequence in this assay (Q96SW2 whole entry): as the sequence (Q96SW2 whole entry) above
Target sequence in this assay (Q16531 whole entry partner): as the sequence (Q16531 whole entry partner) above

[7] = system: IL-2 production in Jurkat cells; assay: Jurkat IL-2 functional assay (ELISA of supernatants); conditions: Homo sapiens; for maximal fold induction: Jurkat, top of the curve fit; for EC50: overnight incubation
Protocol: as §2, §3
The following day, supernatants were collected for a functional readout using ELISA. The supernatants were diluted 1:2 and added to appropriate Human IL-2 plates for IL-2 functional readout.
The top of the curve fit for each compound is reported as the IL-2 ‘fold increase over DMSO control.’

[8] = maximum degradation at the highest concentration tested
[9] = ELISA of supernatants, read-out: IL-2 Production Fold increase over DMSO control

Row | SMILES | Dmax [1] | DC50 [1] | Dmax [2] | DC50 [2] | Dmax [3, 8] | DC50 ([3]; HEK293 HiBiT) | kinact [4] | DC50 [5] | IKZF2 Dmax ([3]; HEK293 HiBiT, maximum degradation at the highest concentration tested) | speed of IKZF2 degradation compared with Reference Compounds A-1, B-3, B-4, C-1 ([4]; HEK293) | DC50 ([6]; flow cytometry, normalized to DMSO control, read-out: IKZF2 Degradation EC50) | Dmax [6] | EC50 ([7]; ELISA of supernatants) | maximal fold induction [7, 9] | maximal fold induction ([7]; read-out: increase in IL-2 production relative to DMSO control)
1 | O=C1CCC(N2Cc3c(ccc(C[C@H]4OCCC[C@@H]4NC4CCC(C(F)(F)F)CC4)c3F)C2=O)C(=O)N1 (single isomer, unassigned) [Example 257] | 34% | 69 nM | 93% | 5 nM | 99% | 3 nM | 0.000133 s⁻¹ |  |  |  |  |  |  |  | 
2 | O=C1CCC(N2Cc3c(ccc(C[C@H]4OCCC[C@@H]4N[C@H]4CC[C@H](F)CC4)c3F)C2=O)C(=O)N1 (single isomer, unassigned) [Example 289] | 31% | 632 nM | 90% | 5 nM | 97% | 5 nM | 0.000131 s⁻¹ | > 10000 nM |  |  |  |  |  |  | 
3 | CC(N[C@H]1CCCO[C@@H]1Cc1ccc2c(c1F)CN(C1CCC(=O)NC1=O)C2=O)C1CCOCC1 (single isomer, unassigned) [Example 291] |  | > 1000 nM | 96% | 5 nM | 94% | 10 nM | 8.61e-05 s⁻¹ | > 10000 nM |  |  |  |  |  |  | 
4 | O=C1CCC(N2Cc3cc(C[C@H]4CCCC[C@@H]4NCc4ccccc4)ccc3C2=O)C(=O)N1 (stereo partly drawn) [Example 2, 3-(5-(((1R,2S)-2-(benzylamino)cyclohexyl)methyl)-1-oxoisoindolin-2-yl)piperidine-2,6-dione] |  | > 10000 nM |  |  | 88% | 18 nM | 0.000147 s⁻¹ |  |  | faster degradation of IKZF2 |  |  |  |  | 
5 | CCN[C@H]1CCCC[C@@H]1Cc1ccc2c(c1)CN(C1CCC(=O)NC1=O)C2=O (stereo partly drawn) [Example 35, 3-(5-(((1R,2S)-2-(ethylamino)cyclohexyl)methyl)-1-oxoisoindolin-2-yl)piperidine-2,6-dione] | 31% | 261 nM |  |  | 94% | 29 nM |  |  |  |  | 3.9 nM | 83% | 141 nM | 1.9 | ≥ 1.9
6 | O=C1CCC(N2Cc3cc(C[C@H]4CCCC[C@@H]4NC4CCCCC4)ccc3C2=O)C(=O)N1 (stereo partly drawn) [Example 53, 3-(5-(((1R,2S)-2-(cyclohexylamino)cyclohexyl)methyl)-1-oxoisoindolin-2-yl)piperidine-2,6-dione] |  | > 1000 nM | 96% | 4 nM | 96% | 3 nM | 0.000147 s⁻¹ |  |  |  |  |  |  |  | 
7 | O=C1CCC(N2Cc3c(ccc(C[C@H]4CCCC[C@@H]4NC4CCCC4)c3F)C2=O)C(=O)N1 (stereo partly drawn) [Example 87, 3-(5-(((1R,2S)-2-(cyclopentylamino)cyclohexyl)methyl)-4-fluoro-1-oxoisoindolin-2-yl)piperidine-2,6-dione] | 39% | 62 nM | 95% | 3 nM | 98% | 2 nM | 0.000139 s⁻¹ |  |  |  |  |  |  |  | 
8 | O=C1CCC(N2Cc3c(ccc(C[C@H]4CCCC[C@@H]4NC4CCOCC4)c3F)C2=O)C(=O)N1 (stereo partly drawn) [Example 116] | 34% | 44 nM | 89% | 1 nM | 98% | 2 nM | 0.00015 s⁻¹ |  |  |  |  |  |  |  | 
9 | O=C1CCC(N2Cc3c(ccc(C[C@H]4OCCC[C@@H]4NC4CCCCC4)c3F)C2=O)C(=O)N1 (stereo partly drawn) [Example 181] |  | > 1000 nM | 99% | 8 nM | 96% | 6 nM | 0.000106 s⁻¹ |  |  |  |  |  |  |  | 

Further lines, with some results ahead:

Row | Dmax [1] | DC50 [1] | Dmax [2] | DC50 [2] | Dmax [3, 8] | DC50 ([3]; HEK293 HiBiT) | kinact [4] | DC50 [5] | IKZF2 Dmax ([3]; HEK293 HiBiT, maximum degradation at the highest concentration tested) | speed of IKZF2 degradation compared with Reference Compounds A-1, B-3, B-4, C-1 ([4]; HEK293) | DC50 ([6]; flow cytometry, normalized to DMSO control, read-out: IKZF2 Degradation EC50) | Dmax [6] | EC50 ([7]; ELISA of supernatants) | SMILES | maximal fold induction [7, 9] | maximal fold induction ([7]; read-out: increase in IL-2 production relative to DMSO control)
10 |  | > 1000 nM |  |  |  | 5 nM | 0.000108 s⁻¹ | > 10000 nM | 95% |  |  |  |  | CC1CC[C@H](NC2CCC(F)(F)CC2)[C@@H](Cc2ccc3c(c2)CN(C2CCC(=O)NC2=O)C3=O)C1 (single isomer, unassigned) [Example 325] |  | 
11 | 53% | 50 nM | 97% | 4 nM | 98% | 2 nM | 0.000158 s⁻¹ | > 10000 nM |  |  |  |  |  | O=C1CC[C@@H](N2Cc3cc(C[C@H]4CCCC[C@@H]4NC4CCC(F)(F)CC4)ccc3C2=O)C(=O)N1 (single isomer, unassigned) [Example 329] |  | 
12 |  | > 1000 nM |  |  | 94% | 7 nM | 0.000111 s⁻¹ |  |  |  |  |  |  | O=C1CC[C@@H](N2Cc3c(ccc(C[C@H]4OCCC[C@@H]4N[C@H]4CC[C@H](F)CC4)c3F)C2=O)C(=O)N1 (single isomer, unassigned) [Example 373] |  | 
13 |  |  |  |  | 93% |  |  |  |  |  |  | 83% | 18 nM | CCN[C@H]1CCCC[C@@H]1Oc1ccc2c(c1)CN(C1CCC(=O)NC1=O)C2=O (stereo partly drawn) [Example B-2] | 1.8 | 
14 |  |  |  |  | 84% |  | 5.56e-05 s⁻¹ |  |  |  |  |  |  | O=C1CCC(N2Cc3cc(O[C@H]4CCCC[C@@H]4NCc4ccccc4)ccc3C2=O)C(=O)N1 (stereo partly drawn) [Example B-3] |  | 
15 |  |  |  |  | 64% |  | 8.33e-06 s⁻¹ |  |  |  |  |  |  | O=C1CCC(N2Cc3cc(N[C@H]4CCCC[C@@H]4NCc4ccccc4)ccc3C2=O)C(=O)N1 (stereo partly drawn) [Example C-1] |  | 
